In ChEMBL document CHEMBL2434952, “Morphological changes of some pathogenic microbial strains induced by novel thiadiazole derivatives” (2013):
Converted amounts (≈) assume the structure as drawn. The source made the active and inactive calls. No cut-off for these calls is given here.

What was measured:
Candida albicans [1] = test: Antifungal activity against Candida albicans assessed as growth inhibition at 30 ug/disk measured after 24 to 48 hrs by agar disk diffusion method; type: functional, organism-based
Bacillus cereus [2] = test: Antibacterial activity against Bacillus cereus assessed as growth inhibition at 30 ug/disk measured after 24 to 48 hrs by agar disk diffusion method in presence of 24.4 Gy gamma-irradiation; type: functional; conditions: light or radiation study, read-out: IZ
Bacillus cereus [3] = test: Antibacterial activity against Bacillus cereus assessed as growth inhibition at 30 ug/disk measured after 24 to 48 hrs by agar disk diffusion method in absence of 24.4 Gy gamma-irradiation; type: functional; conditions: light or radiation study, read-out: IZ
[4] = system: Staphylococcus epidermidis; test: Antibacterial activity against Staphylococcus epidermidis assessed as growth inhibition at 30 ug/disk measured after 24 to 48 hrs by agar disk diffusion method in presence of 24.4 Gy gamma-irradiation; type: functional; conditions: light or radiation study, read-out: IZ
[5] = system: Staphylococcus epidermidis; test: Antibacterial activity against Staphylococcus epidermidis assessed as growth inhibition at 30 ug/disk measured after 24 to 48 hrs by agar disk diffusion method in absence of 24.4 Gy gamma-irradiation; type: functional; conditions: light or radiation study, read-out: IZ
Staphylococcus aureus [6] = test: Antibacterial activity against Staphylococcus aureus assessed as growth inhibition at 30 ug/disk measured after 24 to 48 hrs by agar disk diffusion method in presence of 24.4 Gy gamma-irradiation; type: functional; conditions: light or radiation study, read-out: IZ
Staphylococcus aureus [7] = test: Antibacterial activity against Staphylococcus aureus assessed as growth inhibition at 30 ug/disk measured after 24 to 48 hrs by agar disk diffusion method in absence of 24.4 Gy gamma-irradiation; type: functional; conditions: light or radiation study, read-out: IZ
Bacillus cereus [8] = test: Antibacterial activity against Bacillus cereus assessed as growth inhibition at 30 ug/disk measured after 24 to 48 hrs by agar disk diffusion method; type: functional; conditions: read-out: IZ
[9] = system: Staphylococcus epidermidis; test: Antibacterial activity against Staphylococcus epidermidis assessed as growth inhibition at 30 ug/disk measured after 24 to 48 hrs by agar disk diffusion method; type: functional; conditions: read-out: IZ
Staphylococcus aureus [10] = test: Antibacterial activity against Staphylococcus aureus assessed as growth inhibition at 30 ug/disk measured after 24 to 48 hrs by agar disk diffusion method; type: functional; conditions: read-out: IZ
Klebsiella pneumoniae [11] = test: Antibacterial activity against Klebsiella pneumoniae assessed as growth inhibition at 30 ug/disk measured after 24 to 48 hrs by agar disk diffusion method; type: functional; conditions: read-out: IZ
Pseudomonas aeruginosa [12] = test: Antibacterial activity against Pseudomonas aeruginosa assessed as growth inhibition at 30 ug/disk measured after 24 to 48 hrs by agar disk diffusion method; type: functional; conditions: read-out: IZ
Bacillus cereus [13] = test: Antibacterial activity against Bacillus cereus assessed as growth inhibition measured after 24 to 48 hrs by agar disk diffusion method in presence of 24.4 Gy gamma-irradiation; type: functional
Bacillus cereus [14] = test: Antibacterial activity against Bacillus cereus assessed as growth inhibition measured after 24 to 48 hrs by agar disk diffusion method in absence of 24.4 Gy gamma-irradiation; type: functional
[15] = system: Staphylococcus epidermidis; test: Antibacterial activity against Staphylococcus epidermidis assessed as growth inhibition measured after 24 to 48 hrs by agar disk diffusion method in presence of 24.4 Gy gamma-irradiation; type: functional
[16] = system: Staphylococcus epidermidis; test: Antibacterial activity against Staphylococcus epidermidis assessed as growth inhibition measured after 24 to 48 hrs by agar disk diffusion method in absence of 24.4 Gy gamma-irradiation; type: functional
Staphylococcus aureus [17] = test: Antibacterial activity against Staphylococcus aureus assessed as growth inhibition measured after 24 to 48 hrs by agar disk diffusion method in presence of 24.4 Gy gamma-irradiation; type: functional
Staphylococcus aureus [18] = test: Antibacterial activity against Staphylococcus aureus assessed as growth inhibition measured after 24 to 48 hrs by agar disk diffusion method in absence of 24.4 Gy gamma-irradiation; type: functional
Bacillus cereus [19] = test: Antibacterial activity against Bacillus cereus assessed as growth inhibition measured after 24 to 48 hrs by agar disk diffusion method; type: functional
[20] = system: Staphylococcus epidermidis; test: Antibacterial activity against Staphylococcus epidermidis assessed as growth inhibition measured after 24 to 48 hrs by agar disk diffusion method; type: functional
Staphylococcus aureus [21] = test: Antibacterial activity against Staphylococcus aureus assessed as growth inhibition measured after 24 to 48 hrs by agar disk diffusion method; type: functional
Klebsiella pneumoniae [22] = test: Antibacterial activity against Klebsiella pneumoniae assessed as growth inhibition measured after 24 to 48 hrs by agar disk diffusion method; type: functional, organism-based
Pseudomonas aeruginosa [23] = test: Antibacterial activity against Pseudomonas aeruginosa assessed as growth inhibition measured after 24 to 48 hrs by agar disk diffusion method; type: functional, organism-based
Candida albicans [24] = test: Antifungal activity against Candida albicans assessed as growth inhibition measured after 24 to 48 hrs by agar disk diffusion method; type: functional, organism-based
Bacillus cereus [25] = test: Antibacterial activity against Bacillus cereus assessed as aggregation of cellular material at poles at MIC by scanning electron microscopic analysis; type: functional, organism-based
Bacillus cereus [26] = test: Antibacterial activity against Bacillus cereus assessed as septum disappearance at MIC by scanning electron microscopic analysis; type: functional, organism-based
Bacillus cereus [27] = test: Antibacterial activity against Bacillus cereus assessed as shortening of cell surface at MIC by scanning electron microscopic analysis; type: functional, organism-based
Bacillus cereus [28] = test: Antibacterial activity against Bacillus cereus assessed as elongation of cell surface at MIC by scanning electron microscopic analysis; type: functional, organism-based
Staphylococcus aureus [29] = test: Antibacterial activity against Staphylococcus aureus assessed as elongation of cell surface at MIC by scanning electron microscopic analysis in presence of 24.4 Gy gamma-irradiation; type: functional, organism-based
Staphylococcus aureus [30] = test: Antibacterial activity against Staphylococcus aureus assessed as septum disappearance at MIC by scanning electron microscopic analysis; type: functional, organism-based
Staphylococcus aureus [31] = test: Antibacterial activity against Staphylococcus aureus assessed as deformity of cell surface at MIC by scanning electron microscopic analysis in presence of 24.4 Gy gamma-irradiation; type: functional, organism-based
Bacillus cereus [32] = test: Antibacterial activity against Bacillus cereus assessed as growth inhibition measured for 24 hrs by agar streak dilution method in absence of 24.4 Gy gamma-irradiation; type: functional; conditions: light or radiation study
Staphylococcus aureus [33] = test: Antibacterial activity against Staphylococcus aureus assessed as growth inhibition measured for 24 hrs by agar streak dilution method in presence of 24.4 Gy gamma-irradiation; type: functional; conditions: light or radiation study
Staphylococcus aureus [34] = test: Antibacterial activity against Staphylococcus aureus assessed as growth inhibition measured for 24 hrs by agar streak dilution method in absence of 24.4 Gy gamma-irradiation; type: functional; conditions: light or radiation study
Staphylococcus aureus [35] = test: Antibacterial activity against Staphylococcus aureus assessed as appearance of projected cellular material and membrane blebbing at MIC by scanning electron microscopic analysis; type: functional, organism-based

Compound | inhibition zone (IZ) (Bacillus cereus [13]) | inhibition zone (IZ) (Bacillus cereus [14]) | inhibition zone (IZ) [15] | inhibition zone (IZ) [16] | inhibition zone (IZ) (Staphylococcus aureus [17]) | inhibition zone (IZ) (Staphylococcus aureus [18]) | inhibition zone (IZ) (Bacillus cereus [19]) | inhibition zone (IZ) [20] | inhibition zone (IZ) (Staphylococcus aureus [21]) | growth inhibition (GI) (Klebsiella pneumoniae [22]) | growth inhibition (GI) (Pseudomonas aeruginosa [23]) | growth inhibition (GI) (Candida albicans [24]) | also measured
NYSTATIN |  |  |  |  |  |  |  |  |  |  |  |  | inhibition zone (IZ) (Candida albicans [1]): 7 mm
NCC[C@H](O)C(=O)N[C@@H]1C[C@H](N)[C@@H](O[C@H]2O[C@H](CN)[C@@H](O)[C@H](O)[C@H]2O)[C@H](O)[C@H]1O[C@H]1O[C@H](CO)[C@@H](O)[C@H](N)[C@H]1O [AMIKACIN] |  |  |  |  |  |  |  |  |  |  |  |  | zone of inhibition at 30 µg/disc (Bacillus cereus [2]): 20 mm; zone of inhibition at 30 µg/disc (Bacillus cereus [3]): 20 mm; zone of inhibition at 30 µg/disc [4]: 25 mm; zone of inhibition at 30 µg/disc [5]: 24 mm; zone of inhibition at 30 µg/disc (Staphylococcus aureus [6]): 17 mm; zone of inhibition at 30 µg/disc (Staphylococcus aureus [7]): 20 mm; zone of inhibition at 30 µg/disc (Bacillus cereus [8]): 20 mm; zone of inhibition at 30 µg/disc [9]: 25 mm; zone of inhibition at 30 µg/disc (Staphylococcus aureus [10]): 20 mm; zone of inhibition at 30 µg/disc (Klebsiella pneumoniae [11]): 11 mm; zone of inhibition at 30 µg/disc (Pseudomonas aeruginosa [12]): 15 mm
CC(=O)N(C(C)=O)c1n[nH]c(=S)s1 | 20 mm | 11 mm | 15 mm | 11 mm | 17 mm | 20 mm | 20 mm | 13 mm | 20 mm | inactive | inactive | inactive | 
O=C(Nc1ccccc1)Sc1nnc(N(C(=O)Nc2ccccc2)C(=O)Nc2ccccc2)s1 | 9 mm | 7 mm | 12 mm | 8 mm | 7 mm | 7 mm | 7 mm | 7 mm | 15 mm | inactive | inactive | inactive | 
N#Cc1c(-c2ccccc2)cn(-c2n[nH]c(=S)s2)c1N | 25 mm | 25 mm | 25 mm | 12 mm | 19 mm | 20 mm | 20 mm | 17 mm | 25 mm | inactive | inactive | inactive | Activity (Bacillus cereus [25]): Active; Activity (Bacillus cereus [26]): Active; Activity (Bacillus cereus [27]): Active; Activity (Bacillus cereus [28]): Active; Activity (Staphylococcus aureus [29]): Active; Activity (Staphylococcus aureus [30]): Active; Activity (Staphylococcus aureus [31]): Active; MIC (Bacillus cereus [32]): 250 µg/mL (≈ 835 µM); MIC (Staphylococcus aureus [33]): 250 µg/mL; MIC (Staphylococcus aureus [34]): 125 µg/mL (≈ 418 µM); Activity (Staphylococcus aureus [35]): Active
O=C(Nc1ccccc1)Nc1nnc(S)s1 | 9 mm | 7 mm | 10 mm | 7 mm | 10 mm | 7 mm | 7 mm | 9 mm | 10 mm | inactive | inactive | inactive | 
